Source: patent publication US12398141B2 (SHANGHAI SYNERGY PHARMACEUTICAL SCIENCES CO., LTD, priority 2019, dated 2025)

What was measured:
Type in all cases: biochemical
JAK3 = JAK3 (Homo sapiens (Human), UniProt P52333); test: JAK3 LANCE Ultra kinase assay; conditions: 4 uM ATP
JAK2 = JAK2 (Homo sapiens (Human), UniProt O60674); test: JAK2 LANCE Ultra kinase assay; conditions: 12 uM ATP
JAK1 = JAK1 (Homo sapiens (Human), UniProt P23458); test: JAK1 LANCE Ultra kinase assay; conditions: for IC50: 38 uM ATP; for JAK2/JAK1: ratio of IC50 JAK2 to IC50 JAK1
Chain of JAK1 (P23458 whole entry): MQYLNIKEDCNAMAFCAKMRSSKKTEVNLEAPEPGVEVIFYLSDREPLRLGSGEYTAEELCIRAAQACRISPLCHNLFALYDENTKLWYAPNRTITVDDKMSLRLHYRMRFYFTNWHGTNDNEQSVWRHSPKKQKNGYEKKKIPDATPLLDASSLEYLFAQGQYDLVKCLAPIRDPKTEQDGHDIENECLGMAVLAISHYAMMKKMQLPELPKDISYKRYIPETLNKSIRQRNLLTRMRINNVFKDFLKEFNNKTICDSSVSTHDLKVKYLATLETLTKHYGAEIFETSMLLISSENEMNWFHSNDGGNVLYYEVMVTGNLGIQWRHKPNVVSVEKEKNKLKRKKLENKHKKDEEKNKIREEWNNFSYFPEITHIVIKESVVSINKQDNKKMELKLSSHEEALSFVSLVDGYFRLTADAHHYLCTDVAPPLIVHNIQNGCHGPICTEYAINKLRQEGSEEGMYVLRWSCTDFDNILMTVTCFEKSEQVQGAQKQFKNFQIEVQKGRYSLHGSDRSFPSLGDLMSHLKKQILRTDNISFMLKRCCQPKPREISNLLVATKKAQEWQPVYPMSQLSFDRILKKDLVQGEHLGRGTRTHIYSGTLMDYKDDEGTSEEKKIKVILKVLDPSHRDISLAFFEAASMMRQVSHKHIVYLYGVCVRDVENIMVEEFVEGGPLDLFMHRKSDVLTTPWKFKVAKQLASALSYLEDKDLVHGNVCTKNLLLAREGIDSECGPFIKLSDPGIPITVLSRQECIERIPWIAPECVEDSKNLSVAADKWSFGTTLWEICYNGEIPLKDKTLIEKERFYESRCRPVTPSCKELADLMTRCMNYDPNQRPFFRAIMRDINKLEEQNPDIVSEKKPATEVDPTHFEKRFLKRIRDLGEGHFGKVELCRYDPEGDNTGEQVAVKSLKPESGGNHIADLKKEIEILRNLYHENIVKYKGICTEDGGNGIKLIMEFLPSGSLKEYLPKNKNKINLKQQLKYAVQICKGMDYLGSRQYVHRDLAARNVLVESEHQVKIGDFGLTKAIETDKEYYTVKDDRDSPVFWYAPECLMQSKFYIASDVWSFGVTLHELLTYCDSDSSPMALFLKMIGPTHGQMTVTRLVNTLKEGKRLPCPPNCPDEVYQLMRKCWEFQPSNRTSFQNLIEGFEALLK
Procedure: Inhibition test on activity of JAK kinase in vitro was carried out by the following methods.
JAK1 LANCE® Ultra assay, JAK2 LANCE® Ultra assay and JAK3 LANCE® Ultra assay were used to carry out the test separately, and kits of the above assays were supplied by PerkinElmer. […]
JAK1, JAK2 and JAK3 kinase, ATP and substrates were dissolved and diluted with buffers.
A test liquid was 2 nM Eu-W1024 anti-phosphotyrosine (PerkinElmer, AD0069). A stop buffer was 10 mM edetic acid (Intech, 1842C505).
2.5 μl of an 8-fold solution of the compound and 5 μl of a 4-fold solution of JAK1 or JAK2 or JAK3 kinase were added into a 384-well plate, respectively, and reacted for 10 minutes at room temperature. 2.5 μl of an 8-fold solution of ULight™-JAK-1 peptide/ATP was added and reacted for 90 minutes at room temperature. Finally, 5 μl of 4-fold edetic acid stop buffer and 5 μl of 4-fold test liquid of Eu-W1024 anti-phosphotyrosine were added and incubated for 60 minutes.
According to the formula: percentage of inhibition rate=(maximum value−transform value)/(maximum value−minimum value)×100, inhibition rate of each compound at various concentrations was calculated. The maximum value was the reference value of dimethyl sulfoxide added into the well plate, the minimum value was the blank value, and the transform value is the value obtained by the well of each compound. The IC50 values of the corresponding compounds were then obtained by fitting by using the XLFit fitting tool in excel.

Chain of JAK2 (O60674 whole entry): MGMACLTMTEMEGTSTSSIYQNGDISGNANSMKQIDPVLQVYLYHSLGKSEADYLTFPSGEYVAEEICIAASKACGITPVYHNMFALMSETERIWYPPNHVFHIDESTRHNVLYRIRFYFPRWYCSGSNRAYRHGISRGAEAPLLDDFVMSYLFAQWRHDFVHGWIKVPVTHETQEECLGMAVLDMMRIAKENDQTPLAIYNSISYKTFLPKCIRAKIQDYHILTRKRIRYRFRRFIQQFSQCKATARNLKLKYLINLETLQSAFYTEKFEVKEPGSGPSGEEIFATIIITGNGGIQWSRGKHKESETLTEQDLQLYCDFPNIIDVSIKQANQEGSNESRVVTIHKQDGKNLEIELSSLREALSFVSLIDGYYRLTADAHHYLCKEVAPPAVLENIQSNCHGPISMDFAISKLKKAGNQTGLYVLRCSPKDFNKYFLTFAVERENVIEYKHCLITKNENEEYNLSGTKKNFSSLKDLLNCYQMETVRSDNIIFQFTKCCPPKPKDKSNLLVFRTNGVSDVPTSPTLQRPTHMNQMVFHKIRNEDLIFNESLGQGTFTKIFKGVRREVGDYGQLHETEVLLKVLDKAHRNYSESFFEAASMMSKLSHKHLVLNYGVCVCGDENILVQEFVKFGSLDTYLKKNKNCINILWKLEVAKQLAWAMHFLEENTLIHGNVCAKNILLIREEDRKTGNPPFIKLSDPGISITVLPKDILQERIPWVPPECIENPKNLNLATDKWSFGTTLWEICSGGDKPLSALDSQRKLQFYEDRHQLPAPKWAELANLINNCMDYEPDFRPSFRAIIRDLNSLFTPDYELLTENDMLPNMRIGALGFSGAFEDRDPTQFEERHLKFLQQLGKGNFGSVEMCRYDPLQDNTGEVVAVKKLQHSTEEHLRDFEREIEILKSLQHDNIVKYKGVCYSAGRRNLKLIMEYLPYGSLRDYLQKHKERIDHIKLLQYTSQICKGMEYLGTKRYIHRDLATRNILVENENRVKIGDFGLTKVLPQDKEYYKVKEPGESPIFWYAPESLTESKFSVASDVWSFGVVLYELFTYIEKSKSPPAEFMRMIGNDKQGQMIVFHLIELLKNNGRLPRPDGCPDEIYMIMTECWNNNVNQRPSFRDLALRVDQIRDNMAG
Chain of JAK3 (P52333 whole entry): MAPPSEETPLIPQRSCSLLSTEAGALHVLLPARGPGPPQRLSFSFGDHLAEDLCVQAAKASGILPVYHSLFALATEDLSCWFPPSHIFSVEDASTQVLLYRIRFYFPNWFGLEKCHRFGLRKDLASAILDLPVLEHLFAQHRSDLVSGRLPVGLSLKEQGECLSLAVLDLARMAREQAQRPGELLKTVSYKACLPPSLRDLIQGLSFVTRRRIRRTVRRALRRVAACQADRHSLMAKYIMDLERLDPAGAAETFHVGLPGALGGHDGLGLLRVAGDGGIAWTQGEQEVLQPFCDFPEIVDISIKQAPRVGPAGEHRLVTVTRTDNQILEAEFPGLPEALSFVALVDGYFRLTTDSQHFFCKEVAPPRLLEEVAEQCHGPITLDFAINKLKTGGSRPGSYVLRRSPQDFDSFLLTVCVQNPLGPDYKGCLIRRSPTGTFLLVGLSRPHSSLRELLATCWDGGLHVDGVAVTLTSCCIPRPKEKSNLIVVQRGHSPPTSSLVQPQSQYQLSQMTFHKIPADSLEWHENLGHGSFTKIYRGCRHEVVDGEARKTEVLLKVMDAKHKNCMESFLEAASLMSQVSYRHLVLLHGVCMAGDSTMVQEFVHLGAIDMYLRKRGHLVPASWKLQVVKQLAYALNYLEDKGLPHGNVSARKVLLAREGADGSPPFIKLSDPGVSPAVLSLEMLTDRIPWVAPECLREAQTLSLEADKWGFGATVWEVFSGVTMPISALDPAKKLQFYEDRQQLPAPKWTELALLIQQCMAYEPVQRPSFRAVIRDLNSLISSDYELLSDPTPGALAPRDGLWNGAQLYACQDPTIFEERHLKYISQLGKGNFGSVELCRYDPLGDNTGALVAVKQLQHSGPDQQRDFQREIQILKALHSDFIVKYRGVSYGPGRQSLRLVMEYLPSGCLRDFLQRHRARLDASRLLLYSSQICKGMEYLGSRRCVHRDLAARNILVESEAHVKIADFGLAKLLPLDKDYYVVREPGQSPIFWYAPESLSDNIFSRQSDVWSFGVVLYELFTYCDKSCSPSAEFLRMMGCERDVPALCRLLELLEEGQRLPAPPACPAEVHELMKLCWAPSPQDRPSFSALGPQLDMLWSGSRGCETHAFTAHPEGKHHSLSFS

| Structure (SMILES) | IC50 (JAK3) [nM] | IC50 (JAK2) [nM] | IC50 (JAK1) [nM] | JAK2/JAK1 (JAK1) |
| --- | --- | --- | --- | --- |
| CN(c1c(C#N)cnc2[nH]ccc12)[C@H]1C[C@@H]2CN(C(=O)Nc3nc(OCC(C)(C)O)ns3)C[C@@H]2C1 [Compound H45, (3aR,5s,6aS)-5-((5-cyano-1H-pyrrolo[2,3-b]pyridin-4-yl)(methyl)amino)-N-(3-(2-hydroxy-2-methyl-propoxy)-1,2,4-thiadiazole-5-yl)hexahydrocyclopentadiene[c]pyrrole-2(1H)-carboxamide] | 77 | 50 | 5.9 | 8.47 |
| CN(C)Cc1nsc(NC(=O)N2C[C@H]3C[C@H](Nc4c(C#N)cnc5[nH]ccc45)C[C@H]3C2)n1 [Compound H55, (3aR,5s,6aS)-5-((5-cyano-1H-pyrrole[2,3-b]pyridin-4-yl)amino)-N-(3-((dimethylamino)methyl)-1,2,4-thiadiazole-5-yl)hexahydrocyclopenta[c]pyrrole-2(1H)-carboxamide] | 253 | 17.7 | 2.59 | 6.83 |
| CC[C@@H]1CN(C(=O)NCC#N)C[C@@H]1Nc1c(C(F)(F)F)cnc2[nH]ccc12 [Compound H93, (cis)-3-ethyl-N-(cyanmethyl)-4-((5-(trifluoromethyl)-1H-pyrrolo[2,3-b]pyridin-4-yl)amino)pyrrolidin-1-carboxamide] | 79 | 7.1 | 0.64 | 11.09 |
| CN(c1c(C#N)cnc2[nH]ccc12)[C@H]1C[C@@H]2CN(C(=O)Nc3nc(C4CC4)no3)C[C@@H]2C1 [Compound H32, (3aR,5s,6aS)-4-({2-[(3-cyclopropyl-1,2,4-oxadiazole-5-yl)carbamoyl]-hexahydrocyclopenta[c]pyrrole-5-yl}-methyl-amino)-1H-pyrrolo[2,3-b]pyridin-5-carbonitrile] | 27 | 13 | 5 | 2.60 |
| CC[C@@H]1CN(C(=O)CCC#N)C[C@@H]1Nc1c(C#N)cnc2[nH]ccc12 (relative stereo) [Compound H81, 4-(((cis)-1-(3-cyanopropionyl)-4-ethylpyrrolidin-3-yl)amino)-1H-pyrrolo[2,3-b]pyridin-5-carbonitrile] | 162 | 117 | 9.3 | 12.58 |
| CC[C@@H]1CN(C(=O)NCC(C)(C)C)C[C@@H]1Nc1c(C#N)cnc2[nH]ccc12 (relative stereo) [Compound H86, (cis)-3-((5-cyano-1H-pyrrolo[2,3-b]pyridin-4-yl)amino)-4-ethyl-N-neopentyl-pyrrolidin-1-carboxamide] | 169 | 29 | 1.41 | 20.57 |
| CCC1CN(C(=O)NCC2CC2)CC1Nc1c(C#N)cnc2[nH]ccc12 (centres unmarked) [Compound H82, 3-((5-cyano-1H-pyrrolo[2,3-b]pyridin-4-yl)amino)-4-ethyl-N-(cyclopropylmethyl)pyrrolidin-1-carboxamide] | 172 | 69 | 8.9 | 7.75 |
| CNCC1CCN(S(=O)(=O)C[C@H]2CC[C@H](N(C)c3c(C#N)cnc4[nH]ccc34)CC2)C1 (stereo partly drawn) [Compound H67, 4-(methyl-(trans-4-(((3-((methylamino)methyl)pyrrolidin-1-yl)sulfonyl)methyl)cyclohexyl)amino)-1H-pyrrolo[2,3-b]pyridin-5-carbonitrile] | 76 | 9.5 | 0.67 | 14.18 |
| N#Cc1cnc2[nH]ccc2c1N[C@H]1C[C@@H]2CN(C(=O)Nc3nc(C4CC4)ns3)C[C@@H]2C1 [Compound H49, (3aR,5s,6aS)-5-((5-cyano-1H-pyrrolo[2,3-b]pyridin-4-yl)amino)-N-(3-cyclopropyl-1,2,4-thiadiazole-5-yl)hexahydrocyclopentadiene[c]pyrrole-2(1H)-carboxamide] | 178 | 15 | 5.43 | 2.76 |
| COCc1nsc(NC(=O)N2C[C@H]3C[C@H](Nc4c(C#N)cnc5[nH]ccc45)C[C@H]3C2)n1 [Compound H57] | 48 | 6.4 | 0.89 | 7.19 |
| N#Cc1cnc2[nH]ccc2c1N[C@H]1C[C@@H](NS(=O)(=O)c2cccc(C(F)(F)F)c2)C1 [Compound H13, (cis)-4-{[3-(3-(trifluoromethyl)benzenesulfonamido)-cyclobutyl-1-yl]-amino}-1H-pyrrolo[2,3-b]pyridin-5-carbonitrile] | 58.9 | 21 | 2.96 | 7.09 |
| CN(c1c(C#N)cnc2[nH]ccc12)[C@H]1CC[C@H](CS(=O)(=O)N2CCC(CO)C2)CC1 (stereo partly drawn) [Compound H69, 4-((trans-4-(((3-(hydroxymethyl)pyrrolidin-1-yl)sulfonyl)methyl)cyclohexyl)(methyl)amino)-1H-pyrrolo[2,3-b]pyridin-5-carbonitrile] | 90 | 7.3 | 0.81 | 9.01 |
| N#Cc1cn2c(n1)CC(Nc1c(C#N)cnc3[nH]ccc13)CC2 (centres unmarked) [Compound H90, 7-((5-cyano-1H-pyrrolo[2,3-b]pyridin-4-yl)amino)-5,6,7,8-tetrahydroimidazo[1,2-a]pyridin-2-carbonitrile] | 68 | 5.71 | 0.76 | 7.51 |
| C[C@H](O)C(=O)N1C[C@H]2C[C@@H](N(C)c3c(C#N)cnc4[nH]ccc34)C[C@H]2C1 [Compound H06, (3aR,5R,6aS)-4-{[2-((2S)-2-hydroxypropionyl)-hexahydrocyclopenta[c]pyrrole-5-yl]-methyl-amino}-1H-pyrrolo[2,3-b]pyridin-5-carbonitrile] | 96 | 29.9 | 6.68 | – |
| CC(C)[C@@H]1CN(C(=O)NCC(F)(F)F)C[C@@H]1Nc1c(C#N)cnc2[nH]ccc12 (relative stereo) [Compound H73, (cis)-3-((5-cyano-1H-pyrrolo[2,3-b]pyridin-4-yl)amino)-4-isopropyl-N-(2,2,2-trifluoroethyl)pyrrolidin-1-carboxamide] | 157 | 30 | 4.9 | 6.12 |
| COc1nsc(NC(=O)N2C[C@H]3C[C@H](Nc4c(C#N)cnc5[nH]ccc45)C[C@H]3C2)n1 [Compound H20, (3aR,5s,6aS)-5-((5-cyano-1H-pyrrolo[2,3-b]pyridin-4-yl)amino)-N-(3-methoxy-1,2,4-thiadiazole-5-yl)hexahydrocyclopentadiene[c]pyrrole-2(1H)-carboxamide] | 161 | 36 | 5.8 | – |
| CCCS(=O)(=O)N[C@H]1C[C@@H](Nc2c(C#N)cnc3[nH]ccc23)C1 [Compound H46, (cis)-4-{[3-(propanesulfonamido)-cyclobutyl-1-yl]-amino}-1H-pyrrolo [2,3-b]pyridin-5-carbonitrile] | 68 | 9.8 | 1.13 | 8.67 |
| N#Cc1cnc2[nH]ccc2c1N[C@H]1CN(C(=O)NCC(F)(F)F)CC12CC2 [Compound H72, (R)-7-((5-cyano-1H-pyrrolo[2,3-b]pyridin-4-yl)amino)-N-(2,2,2-trifluoroethyl)-5-azaspiro[2.4]heptane-5-carboxamide] | 75 | 29 | 10.3 | 2.82 |
| C[C@@H]1CN(C(=O)CC#N)C[C@@H]1N(C)c1c(C#N)cnc2[nH]ccc12 (relative stereo) [Compound H05, (cis)-4-{[4-methyl-1-(2-cyanoacetyl)pyrrolidin-3-yl]-methyl-amino}-1H-pyrrolo[2,3-b]pyridin-5-carbonitrile] | 256 | 12.3 | 7.86 | 1.56 |
| CC[C@@H]1CC(NC(=O)CCC(F)(F)F)C[C@@H]1Nc1c(C#N)cnc2[nH]ccc12 (stereo in doubt) [Compound H59, N-(3-((5-cyano-1H-pyrrolo[2,3-b]pyridin-4-yl)amino)-4-ethylcyclopentyl)-4,4,4-trifluorobutanamide] | 39.6 | 11.6 | 2.06 | 5.63 |
| CN(c1c(C#N)cnc2[nH]ccc12)[C@H]1C[C@@H]2CN(C(=O)Nc3nc(C(C)(C)C)ns3)C[C@@H]2C1 [Compound H21, (3aR,5s,6aS)-4-({2-[(3-tert-butyl-1,2,4-thiadiazole-5-yl)carbamoyl]-hexahydrocyclopenta [c]pyrrole-5-yl}-methyl-amino)-1H-pyrrolo[2,3-b]pyridin-5-carbonitrile] | 223 | 46 | 9.4 | 15.40 |
| COCC1CCN(S(=O)(=O)C[C@H]2CC[C@H](N(C)c3c(C#N)cnc4[nH]ccc34)CC2)C1 (stereo partly drawn) [Compound H68, 4-((trans-4-(((3-(methoxymethyl)pyrrolidin-1-yl)sulfonyl)methyl)cyclohexyl)(methyl)amino)-1H-pyrrolo[2,3-b]pyridin-5-carbonitrile] | 386 | 122 | 6.87 | 17.76 |
